target: Beta-3 adrenergic receptor (Homo sapiens, UniProt P13945); test: In vitro effective concentration against beta-3 adrenergic receptor.
Sequence (P13945 whole entry): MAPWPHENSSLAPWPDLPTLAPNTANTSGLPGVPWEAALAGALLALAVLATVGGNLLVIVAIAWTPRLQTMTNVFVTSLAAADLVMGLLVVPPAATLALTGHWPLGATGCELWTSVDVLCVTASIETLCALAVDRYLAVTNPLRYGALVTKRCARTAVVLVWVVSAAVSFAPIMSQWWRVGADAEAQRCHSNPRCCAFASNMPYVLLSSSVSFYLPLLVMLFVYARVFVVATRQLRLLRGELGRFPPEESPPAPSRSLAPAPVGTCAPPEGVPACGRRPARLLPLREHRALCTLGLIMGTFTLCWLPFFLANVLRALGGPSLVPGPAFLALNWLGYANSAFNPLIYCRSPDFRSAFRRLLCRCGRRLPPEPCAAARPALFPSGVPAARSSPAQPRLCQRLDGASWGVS

Structure (SMILES)	EC50 [nM]
CCCCCCn1cc(O)n(-c2ccc(S(=O)(=O)Nc3ccc(CCNC[C@H](O)c4cccnc4)cc3)cc2)c1=O [4-(3-Hexyl-2,5-dioxo-imidazolidin-1-yl)-N-{4-[2-(2-hydroxy-2-pyridin-3-yl-ethylamino)-ethyl]-phenyl}-benzenesulfonamide]	3.63
CCCCCCn1c(O)cn(-c2ccc(S(=O)(=O)Nc3ccc(CCNC[C@H](O)c4cccnc4)cc3)cc2)c1=O [4-(3-Hexyl-2,4-dioxo-imidazolidin-1-yl)-N-{4-[2-(2-hydroxy-2-pyridin-3-yl-ethylamino)-ethyl]-phenyl}-benzenesulfonamide]	77.6
CCCCCCCCn1cc(O)n(-c2ccc(S(=O)(=O)Nc3ccc(CCNC[C@H](O)c4cccnc4)cc3)cc2)c1=O [N-{4-[2-((R)-2-Hydroxy-2-pyridin-3-yl-ethylamino)-ethyl]-phenyl}-4-(3-octyl-2,5-dioxo-imidazolidin-1-yl)-benzenesulfonamide]	63.1

From BindingDB's records for doi:10.1016/s0960-894x(03)00491-8 (Central Drug Research Institute, 2003)
